In article PMC4359373, “Mechanistic insight into the conserved allosteric regulation of periplasmic proteolysis by the signaling molecule cyclic-di-GMP” (eLife, 2014):
Several values for one entry are separate records, joined by “and”; a condition that tells them apart may be missing. Equal entries are not always repeated.

How the values were obtained:
[1] = target: T1, LapD (LapD-sfGFP, full-length), with LapG (Pseudomonas fluorescens, UniProt Q3KK31); experiment: UV cross-linking of LapG-V205pAzF to LapD-sfGFP, in-gel fluorescence; assay type: binding; conditions: 2 μM LapD-sfGFP, 1 μM LapG, 2.5 mM CaCl2, pH 7.5, room temperature; detergent-solubilized; concentration range of sharp transition, not an EC50
T1 construct: full-length transmembrane LapD with C-terminal TEV site-sfGFP-His6, E. coli, detergent-solubilized (LMNG/CHAPS); LapG without signal peptide carrying para-azidophenylalanine at V205, sfGFP cut off; with Periplasmic cysteine protease LapG
T1 sequence (Q3KK31 1-648): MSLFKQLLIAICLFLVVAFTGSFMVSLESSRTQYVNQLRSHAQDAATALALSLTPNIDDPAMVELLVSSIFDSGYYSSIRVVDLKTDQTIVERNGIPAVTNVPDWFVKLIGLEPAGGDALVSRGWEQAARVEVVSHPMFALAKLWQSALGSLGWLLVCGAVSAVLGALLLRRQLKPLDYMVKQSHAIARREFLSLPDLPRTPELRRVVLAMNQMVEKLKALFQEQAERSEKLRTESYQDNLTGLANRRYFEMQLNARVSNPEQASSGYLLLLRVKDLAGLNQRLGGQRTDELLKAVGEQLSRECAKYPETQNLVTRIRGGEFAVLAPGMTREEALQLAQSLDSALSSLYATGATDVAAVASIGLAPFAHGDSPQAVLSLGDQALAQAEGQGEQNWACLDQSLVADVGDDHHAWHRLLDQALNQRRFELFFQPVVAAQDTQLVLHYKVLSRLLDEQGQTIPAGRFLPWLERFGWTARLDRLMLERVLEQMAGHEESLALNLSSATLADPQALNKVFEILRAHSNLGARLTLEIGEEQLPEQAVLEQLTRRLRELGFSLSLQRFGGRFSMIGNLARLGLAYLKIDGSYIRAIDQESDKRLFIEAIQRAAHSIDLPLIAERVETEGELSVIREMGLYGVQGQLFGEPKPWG
T1 sequence (Q3KK32 50-251 partner): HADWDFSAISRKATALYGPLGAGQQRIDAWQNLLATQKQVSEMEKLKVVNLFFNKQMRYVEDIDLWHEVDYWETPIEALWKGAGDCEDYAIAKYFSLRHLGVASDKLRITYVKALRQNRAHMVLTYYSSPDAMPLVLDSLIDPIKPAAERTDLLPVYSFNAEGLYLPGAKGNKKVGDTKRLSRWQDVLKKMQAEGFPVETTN

[2] = target: full-length P. fluorescens LapD fused C-terminally to superfolder GFP (LapD-sfGFP), wild type (P. fluorescens) (UniProt Q3KK31); experiment: cross-linking

switch in LapG cross-linking [1] | other (LapG:LapD molar ratio) [2] | Compound
0.75 to 1 µM | – | Nc1nc2c(ncn2[C@@H]2O[C@@H]3COP(=O)(O)O[C@H]4[C@@H](O)[C@H](n5cnc6c(=O)[nH]c(N)nc65)O[C@@H]4COP(=O)(O)O[C@H]3[C@H]2O)c(=O)[nH]1 [c-di-GMP]
– | 0.3 and 0.5 | non-fluorescent P. fluorescens LapG with pAzF at Y206 (enzyme)
